In patent publication US8889696B2, “Substituted pyrido[2,3-d]pyrimidin-7(8H)-ones and therapeutic uses thereof” (Temple University—Of The Commonwealth System Of Higher …, priority 2009, dated 2014):

Legend:
[1] = tested on: CD-1 female mice; assay: Toxicity study in mice; format: in vivo; details: female, CD-1, mouse, in vivo, 7 days
Description: . DMSO was used as a placebo. Three CD-1 female mice were used per group. Drugs were administered intraperitoneally at 100 mg/kg. Viability, signs of toxicity and body weight were monitored over the next 7 days. […]. […] Comparative body weight studies could not be carried out for this compound due to the early death of animals. These observations agree with the known toxicity of BI-2536. […]. Following this treatment, 100% survival for >10 days after injection was observed. […]

[2] = tested on: K562 (chronic myelogenous leukemia); assay: Effect on tumor cell lines (Latham assay), K562; format: cell-based; details: Homo sapiens; K562 cells, examined 96 hours after treatment; read-out: Potencies (IC50) K 562
Description: (§1) The plated cells were treated 24 hours later with a compound of the invention dissolved in DMSO at multiple concentrations ranging from 0.01 μM to 100 μM. […] When necessary, the total number of viable cells was determined by trypsinizing the wells and counting the number of viable cells, as determined by trypan blue exclusion, using a hemacytometer.

[3] = tested on: DU145 (prostate cancer); assay: Effect on tumor cell lines (Latham assay), DU145; format: cell-based; details: Homo sapiens, DU-145; DU145 cells, examined 96 hours after treatment; read-out: Potencies (IC50) DU 145
Description: as §1

Which death of mice [1] does the source give for `CC[C@@H]1C(=O)N(C)c2cnc(Nc3ccc(C(=O)NC4CCN(C)CC4)cc3OC)nc2N1C1CCCC1` [BI-2536, reference compound] here?
Its death of mice is “two mice died within 24 hours while the third mouse died within 72 hours”.

What does the source list for `CCCn1c(=O)c(S(=O)(=O)c2ccccc2)cc2cnc(Nc3ccc4cc[nH]c4c3)nc21` [Example 44, 2-(1H-indol-6-ylamino)-6-(phenylsulfonyl)-8-propylpyrido[2,3-d]pyrimidin-7(8H)-one]?
IC50 [2]: 1 to 10 µM; melting point: 272 to 273 °C; IC50 [3]: 1 to 10 µM

With `CCCn1c(=O)c(S(=O)(=O)c2ccccc2)cc2cnc(Nc3cccc4[nH]ccc34)nc21` [Example 45, 2-(1H-indol-4-ylamino)-6-(phenylsulfonyl)-8-propylpyrido[2,3-d]pyrimidin-7(8H)-one] as the compound, how does the IC50 [2] read?
Its IC50 is 1 to 10 µM.

What about the melting point of the same compound?
The melting point was 260 to 261 °C.

And the IC50 [3]?
Its IC50 is 10 to 25 µM.

For `CCCn1c(=O)c(S(=O)(=O)c2ccccc2)cc2cnc(Nc3ccc4[nH]ccc4c3)nc21` [Example 47, 2-(1H-indol-5-ylamino)-6-(phenylsulfonyl)-8-propylpyrido[2,3-d]pyrimidin-7(8H)-one], which IC50 [2] is on record?
The IC50 was < 1 µM.

And the melting point?
Its melting point is 293 to 295 °C.

And the IC50 [3]?
Its IC50 is 1 to 10 µM.

For `CCCn1c(=O)c(S(=O)(=O)c2ccccc2)cc2cnc(SC)nc21` [Example 48, 2-(methylsulfanyl)-6-(phenylsulfonyl)-8-propylpyrido[2,3-d]pyrimidin-7(8H)-one], which IC50 [2] is on record?
Its IC50 is 50 to 100 µM.

And the melting point?
Its melting point is 231 to 232 °C.

And the IC50 [3]?
The IC50 was > 100 µM.

What does the source list for `CN1CCN(c2ccc(Nc3ncc4cc(S(=O)(=O)c5ccc(Cl)cc5)c(=O)n(C5CCCCC5)c4n3)cc2)CC1` [Example 50, 2-(4-(4-methylpiperazin-1-yl)phenylamino)-6-(4-chlorophenylsulfonyl)-8-cyclohexylpyrido[2,3-d]pyrimidin-7(8H)-one]?
IC50 [2]: 1 to 10 µM; melting point: 259 to 260 °C; IC50 [3]: 1 to 10 µM

Which IC50 [2] does the source give for `O=c1c(S(=O)(=O)c2ccc(Cl)cc2)cc2cnc(Nc3ccc4[nH]ccc4c3)nc2n1C1CCCCC1` [Example 51, 2-(1H-indol-5-ylamino)-6-(4-chlorophenylsulfonyl)-8-cyclohexylpyrido[2,3-d]pyrimidin-7(8H)-one] here?
The IC50 was 10 to 25 µM.

And the melting point?
Its melting point is 305 to 307 °C.

And the IC50 [3]?
The IC50 was 25 to 50 µM.

Which IC50 [2] does the source give for `O=c1c(S(=O)(=O)c2ccc(Cl)cc2)cc2cnc(Nc3ccc(N4CCOCC4)cc3)nc2n1C1CCCCC1` [Example 52, 6-(4-chlorophenylsulfonyl)-2-(4-morpholinophenylamino)-8-cyclohexylpyrido[2,3-d]pyrimidin-7(8H)-one] here?
Its IC50 is 1 to 10 µM.

And the melting point?
Its melting point is 329 to 331 °C.

What about the IC50 [3] of the same compound?
The IC50 was 10 to 25 µM.

For `O=c1c(S(=O)(=O)c2ccc(Cl)cc2)cc2cnc(Nc3cccc4[nH]ccc34)nc2n1C1CCCCC1` [Example 53, 2-(1H-indol-4-ylamino)-6-(4-chlorophenylsulfonyl)-8-cyclohexylpyrido[2,3-d]pyrimidin-7(8H)-one], which IC50 [2] is on record?
Its IC50 is 10 to 25 µM.

What about the melting point of the same compound?
Its melting point is 300 to 302 °C.

And the IC50 [3]?
Its IC50 is > 100 µM.

With `CCn1c(=O)c(S(=O)(=O)c2ccccc2)cc2cnc(Nc3ccc4[nH]ccc4c3)nc21` [Example 54, 2-(1H-indol-5-ylamino)-8-ethyl-6-(phenylsulfonyl)pyrido[2,3-d]pyrimidin-7(8H)-one] as the compound, how does the IC50 [2] read?
Its IC50 is < 1 µM.

And the melting point?
The melting point was > 400 °C.

And the IC50 [3]?
Its IC50 is 1 to 10 µM.

For `O=c1c(S(=O)(=O)c2ccccc2)cc2cnc(Nc3ccc4[nH]ccc4c3)nc2n1C1CCCC1` [Example 55, 2-(1H-indol-5-ylamino)-8-cyclopentyl-6-(phenylsulfonyl)pyrido[2,3-d]pyrimidin-7(8H)-one], which IC50 [2] is on record?
Its IC50 is 1 to 10 µM.

And the melting point?
The melting point was 272 to 273 °C.

And the IC50 [3]?
The IC50 was 1 to 10 µM.

Which IC50 [2] does the source give for `COc1ccc(Nc2ncc3cc(S(=O)(=O)c4ccccc4)c(=O)n(C4CCCC4)c3n2)cc1` [Example 56, 2-(4-methoxyphenylamino)-8-cyclopentyl-6-(phenylsulfonyl)pyrido[2,3-d]pyrimidin-7(8H)-one] here?
The IC50 was 1 to 10 µM.

And the melting point?
The melting point was 201 °C.

What about the IC50 [3] of the same compound?
The IC50 was 25 to 50 µM.

With `O=c1c(S(=O)(=O)c2ccccc2)cc2cnc(N3CCN(c4ccc(C(F)(F)F)cn4)CC3)nc2n1C1CCCC1` [Example 57, 8-cyclopentyl-2-(4-(5-(trifluoromethyl)pyridin-2-yl)piperazin-1-yl)-6-(phenylsulfonyl)pyrido[2,3-d]pyrimidin-7(8H)-one] as the compound, how does the IC50 [2] read?
The IC50 was 50 to 100 µM.

And the melting point?
Its melting point is 258 to 259 °C.

What about the IC50 [3] of the same compound?
Its IC50 is 25 to 50 µM.

Which results are given for `CSc1ncc2cc(S(=O)(=O)c3ccc(Cl)cc3)c(=O)n(C3CCCC3)c2n1` [Example 60, 6-(4-chlorophenylsulfonyl)-8-cyclopentyl-2-(methylsulfanyl)pyrido[2,3-d]pyrimidin-7(8H)-one]?
IC50 [2]: 50 to 100 µM; melting point: 222 to 223 °C; IC50 [3]: 50 to 100 µM

With `O=c1c(S(=O)(=O)c2ccccc2)cc2cnc(NC3CCCC3)nc2n1C1CCCC1` [Example 61, 8-cyclopentyl-2-(cyclopentylamino)-6-(phenylsulfonyl)pyrido[2,3-d]pyrimidin-7(8H)-one] as the compound, how does the IC50 [2] read?
The IC50 was > 100 µM.

What about the melting point of the same compound?
The melting point was 209 to 210 °C.

And the IC50 [3]?
The IC50 was > 100 µM.

What does the source list for `COc1cc(Nc2ncc3cc(S(=O)(=O)c4ccccc4)c(=O)n(C4CCCC4)c3n2)cc(OC)c1OC` [Example 62, 2-(3,4,5-trimethoxyphenylamino)-8-cyclopentyl-6-(phenylsulfonyl)pyrido[2,3-d]pyrimidin-7(8H)-one]?
IC50 [2]: 1 to 10 µM; melting point: 119 to 120 °C; IC50 [3]: 1 to 10 µM

Which results are given for `O=c1c(S(=O)(=O)c2ccccc2)cc2cnc(Nc3ccc(N4CCOCC4)cc3)nc2n1C1CCCC1` [Example 63, 2-(4-morpholinophenylamino)-8-cyclopentyl-6-(phenylsulfonyl)pyrido[2,3-d]pyrimidin-7(8H)-one]?
IC50 [2]: 10 to 25 µM; melting point: 221 to 222 °C; IC50 [3]: 10 to 25 µM

With `CC(C)(C)OC(=O)N1CCN(c2ccc(Nc3ncc4cc(S(=O)(=O)c5ccccc5)c(=O)n(C5CCCC5)c4n3)nc2)CC1` [Example 65, 2-(5-(4-tert-butoxycarbonylpiperazin-1-yl)pyridin-2-ylamino)-8-cyclopentyl-6-(phenylsulfonyl)pyrido[2,3-d]pyrimidin-7(8H)-one] as the compound, how does the IC50 [2] read?
The IC50 was 10 to 25 µM.

What about the melting point of the same compound?
Its melting point is 115 to 116 °C.

And the IC50 [3]?
The IC50 was > 100 µM.

Which IC50 [2] does the source give for `CSc1ncc2cc(S(=O)(=O)c3ccccc3)c(=O)n(C3CCCC3)c2n1` [Example 67, 8-cyclopentyl-2-(methylsulfanyl)-6-(phenylsulfonyl)pyrido[2,3-d]pyrimidin-7(8H)-one] here?
The IC50 was 50 to 100 µM.

And the melting point?
The melting point was 184 to 185 °C.

What about the IC50 [3] of the same compound?
The IC50 was 50 to 100 µM.

What does the source list for `CSc1ncc2cc(S(=O)(=O)c3ccccc3)c(=O)[nH]c2n1` [Example 68, 2-(methylsulfanyl)-6-(phenylsulfonyl)pyrido[2,3-d]pyrimidin-7(8H)-one]?
IC50 [2]: > 100 µM; melting point: 280 °C (dec.); IC50 [3]: > 100 µM
